Reference: article PMC12494831, “Discovery of new pyridine 3-carboxylic acid-based pharmacophores as dual anti-inflammatory and anti-hyperglycemic agents” (Scientific Reports, 2025)

Assays:
α-amylase (EC.3.2.1.1) = molecular target: T1, α-amylase (EC.3.2.1.1) (Homo sapiens, UniProt P04746); assay: In vitro α-amylase inhibition (starch/DNS, 540 nm); assay type: biochemical; settings: for IC50: test concentrations 2-10 µg, read-out: α-Amylase IC50±SD (converted)
T1 sequence (P04746 16-511): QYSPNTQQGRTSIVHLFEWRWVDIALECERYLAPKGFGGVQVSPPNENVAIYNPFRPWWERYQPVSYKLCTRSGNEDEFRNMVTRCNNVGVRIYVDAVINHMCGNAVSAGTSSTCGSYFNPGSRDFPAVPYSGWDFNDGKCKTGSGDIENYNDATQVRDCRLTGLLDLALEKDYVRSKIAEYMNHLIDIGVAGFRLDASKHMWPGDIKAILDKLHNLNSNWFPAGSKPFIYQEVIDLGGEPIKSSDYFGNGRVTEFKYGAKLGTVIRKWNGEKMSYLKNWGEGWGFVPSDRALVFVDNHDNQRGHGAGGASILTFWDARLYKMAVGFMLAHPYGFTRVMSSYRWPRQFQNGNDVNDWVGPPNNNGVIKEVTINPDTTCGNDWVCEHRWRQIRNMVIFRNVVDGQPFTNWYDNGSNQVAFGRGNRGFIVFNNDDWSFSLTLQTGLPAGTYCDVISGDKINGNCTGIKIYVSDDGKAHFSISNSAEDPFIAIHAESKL
Experimental: α-Amylase enzyme and other chemical reagents are used for enzyme inhibitory activity. The characterized compounds are diluted in an analytical grad solvent (DMSO) system at 1 mg/mL solution concentration. The activity reaction of the synthesized analogues on the enzyme was treated at final concentrations of 2 to 10 µg. In the interaction between enzyme and compounds, 10 min incubation was maintained before the inhibitory activity started. The enzyme-receptor inhibition efficiency was calculated and compared with the positive control.
Sodium phosphate buffer 0.2 mM (pH 6.9 with 6 × 10^− 4 M NaCl) in 500 µL enzyme solution (0.5 mg/mL) was taken and incubated with test samples (2–10 µg/mL) at room temperature for 10 min. A starch (1%) solution of 500 µL with phosphate buffer was added to all test inhibitor samples; further, the tubes were incubated for 10 min at 28 °C. The reaction test tubes were incubated for another 5 min in the water bath (100 °C) after the addition of the color reagent dinitro salicylic acid and cooled at room temperature until reached. Finally, 10 mL of distilled water was mixed with each test tube, and the colored mixture was measured at a fixed wavelength of 540 nm. The absorbance without sample solution (blank) and control (buffer and standard drug sample) was measured at 540 nm. The α-amylase inhibition efficiency was validated using the following equation:2 [drawing 2]

human RBC = assay: Anti-inflammatory activity: hypotonic solution-induced human RBC hemolysis (560 nm); assay type: cell-based; settings: for IC50: induced human RBC hemolysis, read-out: Inflammatory IC50±SD
Experimental: All synthesized compounds are validated in human RBC (blood sample); the blood sample was collected from a healthy volunteer in an EDTA tube. The EDTA tube further proceeded with centrifugation at 3000 rpm for 30 min. A supernatant (which contains plasma and leucocytes) solution was isolated, and the obtained RBC (red blood cells) was further treated with Alsever’s reagent. Alsever’s reagent was prepared as follows: sodium citrate (0.8 g, 2.6 mmol), dextrose (2 g, 11.0 mmol), citric acid (0.050 g, […]), and sodium chloride (0.42 g, 7.0 mmol) were solubilized in 100 mL of distilled water. The above mixture was centrifuged for 30 min at 3000 rpm. Then, colloidal blood cells were separated, carefully transferred, and washed with 0.85% of the isosaline solution; this process continued until a clear solution appeared. Employing coagulated RBC and generated human erythrocyte hemolysis, the anti-inflammatory activity and potential of the synthesized entities were evaluated. The tested compounds are prepared at different concentrations for the inhibition activity of inflammation, along with 100 µL of a purified RBC sample utilized. All characterized samples were followed by adding 5.0 mL of trisodium phosphate (10 mM) and 5.0 mL of sodium chloride (5.0 mM) buffer solutions. After the addition of the above mixtures, the test samples are incubated for 15 min at room temperature with RBC and hypotonic mixtures. After incubation, the mixture was centrifuged at 3000 rpm for 15 min. The final supernatant liquid solution was measured at 560 nm using a UV-visible spectrophotometer.3 [drawing 3]

[1] = ABTS cation radical scavenging (734 nm); settings: for IC50: read-out: ABTS IC50±SD
Experimental: (§1) The experimental method principle relies on the degradation of the purple color of the DPPH radical and the blue color reduction of the ABTS cation radical. This is due to consuming the electron or hydrogen radical from the antioxidant (A-H). Both assays were measured at 517 nm and 734 nm, respectively. The distinction of color changes illustrates the potential scavenging activity of the inhibitor molecules in terms of hydrogen-donating proficiency. From this, we can conclude the anti-oxidant efficacy.
In brief, 7.0 mM ABTS in H2O and 2.5 mM potassium persulfate (1:1) were shaken well to generate ABTS cation radicals and kept in the dark at RT for 15–20 h before it is used for the experiment. After, the radical was mixed with the synthesized molecules at different concentrations (20 µM to 100 µM). The resultant solution was measured for absorbance at 734 nm. Ascorbic acid is the positive control for this experiment.1 [drawing 1]

[2] = DPPH radical scavenging (517 nm); settings: for IC50: read-out: DPPH IC50±SD
Experimental: as §1
Methanolic DPPH solution (0.15 mM) was prepared, and 1.0 mL of DPPH solution was mixed with 3.0 mL of synthesized molecules at different concentrations (20 µM to 100 µM). The mixture was constantly swirled and stored RT for 30 min, followed by absorbance measurement at 517 nm.

| SMILES | α-Amylase Inhibition % (α-amylase (EC.3.2.1.1); 2 µg) [%] | α-Amylase Inhibition % (α-amylase (EC.3.2.1.1); 4 µg) [%] | α-Amylase Inhibition % (α-amylase (EC.3.2.1.1); 6 µg) [%] | α-Amylase Inhibition % (α-amylase (EC.3.2.1.1); 8 µg) [%] | α-Amylase Inhibition % (α-amylase (EC.3.2.1.1); 10 µg) [%] | inhibition at 20 µM (human RBC) [%] | inhibition at 40 µM (human RBC) [%] | inhibition at 60 µM (human RBC) [%] | inhibition at 80 µM (human RBC) [%] | inhibition at 100 µM (human RBC) [%] | IC50 (human RBC) [µM] | ABTS Inhibition % ([1]; 20 µM) [%] | ABTS Inhibition % ([1]; 40 µM) [%] | ABTS Inhibition % ([1]; 60 µM) [%] | ABTS Inhibition % ([1]; 80 µM) [%] | ABTS Inhibition % ([1]; 100 µM) [%] | IC50 [1] [µM] | IC50 (α-amylase (EC.3.2.1.1)) [µM] | DPPH Inhibition % ([2]; 20 µM) [%] | DPPH Inhibition % ([2]; 40 µM) [%] | further results |
| --- | --- | --- | --- | --- | --- | --- | --- | --- | --- | --- | --- | --- | --- | --- | --- | --- | --- | --- | --- | --- | --- |
| C[C@H]1O[C@H](O[C@H]2[C@H](O)[C@@H](O)[C@@H](O[C@H]3[C@H](O)[C@@H](O)C(O)O[C@@H]3CO)O[C@@H]2CO)[C@H](O)[C@@H](O)[C@@H]1N[C@H]1C=C(CO)[C@@H](O)[C@H](O)[C@H]1O (some centres unmarked) [Acarbose, reference compound] | 85.59 | 83.98 | 82.19 | 80.97 | 80.38 | – | – | – | – | – | – | – | – | – | – | – | – | – | – | – | – |
| COC(=O)C=Cc1cccc(OC(=O)c2cccnc2)c1 [Compound 2f, 3-(3-Methoxy-3-oxoprop-1-en-1-yl)-phenyl nicotinate] | 79.2 | 77.89 | 56.22 | 47.87 | 36.74 | 31 | 37 | 42 | 45.6 | 49 | 65.24 ± 0.18 | 27.6 | 33.8 | 41.5 | 52 | 60.1 | 81.05 ± 0.22 | 4.71 | 35.31 | 38.4 | DPPH Inhibition % ([2]; 60 µM): 41.11%; DPPH Inhibition % ([2]; 80 µM): 43.18%; DPPH Inhibition % ([2]; 100 µM): 45.7%; IC50 [2]: 78.05 ± 0.08 µM |
| COC(=O)C=Cc1ccccc1OC(=O)c1cccnc1 [Compound 2g, 2-(3-Methoxy-3-oxoprop-1-en-1-yl)phenyl nicotinate] | 80.38 | 73.64 | 73.06 | 40.84 | 29.72 | 79 | 80.2 | 80.3 | 85.6 | 86 | 85.56 ± 0.25 | 56 | 57 | 58.1 | 60.2 | 62 | 21.85 ± 0.21 | 4.79 | 34.94 | 44.35 | DPPH Inhibition % ([2]; 60 µM): 46.41%; DPPH Inhibition % ([2]; 80 µM): 50.02%; DPPH Inhibition % ([2]; 100 µM): 61.07%; IC50 [2]: 81.81 ± 0.01 µM |
| O=C(Oc1ccc2c(c1)OCO2)c1cccnc1 [Compound 2h, Benzo[1,3]dioxol-5-yl nicotinate] | 74.08 | 73.2 | 72.47 | 70.57 | 70.13 | 52 | 63 | 64.7 | 65 | 70 | 21.7 ± 0.24 | 69 | 71 | 72 | 72.9 | 76.7 | 16.4 ± 0.25 | 6.23 | 84.5 | 85.8 | DPPH Inhibition % ([2]; 60 µM): 86.8%; DPPH Inhibition % ([2]; 80 µM): 87.2%; DPPH Inhibition % ([2]; 100 µM): 87.68%; IC50 [2]: 12.9 ± 0.19 µM |
| COc1cc(C(C)=O)ccc1OC(=O)c1cccnc1 [Compound 2i, 4-Acetyl-2-methoxyphenyl nicotinate] | 77.74 | 76.42 | 74.67 | 71.01 | 70.86 | 17.6 | 25.3 | 47 | 58 | 70 | 66.97 ± 0.28 | 41.6 | 44.7 | 49.5 | 53.9 | 60.4 | 38.43 ± 0.21 | 5.25 | 8.89 | 33.34 | DPPH Inhibition % ([2]; 60 µM): 40.65%; DPPH Inhibition % ([2]; 80 µM): 49.83%; DPPH Inhibition % ([2]; 100 µM): 52.22%; IC50 [2]: 99.62 ± 0.15 µM |
